Test results reported in PubChem BioAssay AID624285 (Broad Institute, 2012).
“And” between values parts separate entries of the source, which are not always exact repeats. Equal values may be shown once. The source made the active and inactive calls.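 The calls were made as follows: active = signal-decreasing dose-response curve whose fitted half-maximal concentration is at or below twice the highest valid tested dose; inconclusive = flat fit at 30 to 70% signal loss, or poor fit; inactive = the rest.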

Test: cytotoxicity in mammalian cells, dose response, cytotoxicity control for PDI inhibitor project, cell-based, 24 h, luminescence, cherry-picked samples (AID 624285)
Details: NIH3T3/HeLa viability, CellTiter-Glo ATP luminescence, 24 h; at 35 µM (top of the series)

COc1ccc(OC)c(CN2CCN(Cc3cc(=O)oc4cc(O)ccc34)CC2)c1
activity change, negative = cytotoxicity: -20.6% (inactive)

Cc1ccc2nc(N3CCN(Cc4nnnn4C4CCCC4)CC3)c(C#N)cc2c1
activity change, negative = cytotoxicity: -9.95% (inactive)

CCCc1cc(=O)[nH]c(SCCOc2ccc(OCC)cc2)n1
activity change, negative = cytotoxicity: -5.03% (inactive)

C[C@H]1CCCC(=O)CCCCCc2cc(O)cc(O)c2C(=O)O1
activity change, negative = cytotoxicity: -12.8% (inactive)

CC(=O)NC(Cc1c[nH]c2ccccc12)C(=O)OCC(=O)N1CCN(S(=O)(=O)c2ccc(Cl)cc2)CC1 (configuration not stated)
activity change, negative = cytotoxicity: -10.5% (inactive)

CCN(CC)CCNC(=O)C(C(=O)c1ccccc1)n1ccccc1=O (configuration not stated)
activity change, negative = cytotoxicity: -1.54% (inactive)

NC(=O)c1ccc(NC(=O)COC(=O)c2ccc(Br)c(S(=O)(=O)N3CCOCC3)c2)cc1
activity change, negative = cytotoxicity: -6.39% (inactive)

O=C1CCC(=O)N1CCc1c[nH]c2ccccc12
activity change, negative = cytotoxicity: -6.09% (inactive)

Cc1c(O)ccc2c(CN3CCN(Cc4ccccc4)CC3)cc(=O)oc12
activity change, negative = cytotoxicity: -14.2% (inactive)

CCOC(=O)c1ccc(NC(=O)C2(c3ccc(Cl)cc3)CCCC2)cc1
activity change, negative = cytotoxicity: -21.1% (inactive)

Cc1ccc(CN(c2ccc(C(=O)NCc3ccccn3)cc2)S(C)(=O)=O)cc1
activity change, negative = cytotoxicity: -10.4% (inactive)

CC1Cc2ccccc2N1C(=O)CSc1nnc2sc3ccccc3n12 (configuration not stated)
activity change, negative = cytotoxicity: -7.39% (inactive)

CC1(C(=O)Nc2ccc3c(c2)OCCO3)CCN1C(=O)C1(c2ccc(Cl)cc2)CC1 (configuration not stated)
activity change, negative = cytotoxicity: -11.6% (inactive)

O=C(O)CCc1ccc(-c2cccs2)n1NC(=O)c1ccco1
activity change, negative = cytotoxicity: 0.695% (inactive)

Clc1cccc(OCCCN2CCCC2)c1Cl
activity change, negative = cytotoxicity: -17% (inactive)

CCCCNC(=O)CCn1c(=O)c2ccccc2n(CC(=O)Nc2ccccc2OCC)c1=O
activity change, negative = cytotoxicity: -9.28% (inactive)

O=C(c1c(O)cc(O)cc1O)C1c2c(cc(O)c3c2O[C@H](c2ccc(O)cc2)[C@@H](O)C3)OC1c1ccc(O)cc1 (some centres not stated)
activity change, negative = cytotoxicity: -5.6% (inactive)

CCOc1ccc(NC(=O)CCc2nnc3ccc(N4CCN(C)CC4)nn23)cc1
activity change, negative = cytotoxicity: -6.93% (inactive)

CNC[C@@H]1Oc2c(NS(C)(=O)=O)cccc2C(=O)N([C@@H](C)CO)C[C@H]1C
activity change, negative = cytotoxicity: 1.39% (inactive)

C[C@]12CC[C@@H]3c4ccc(O[C@@H]5O[C@H](C(=O)O)[C@@H](O)[C@H](O)[C@H]5O)cc4CC[C@H]3[C@@H]1C[C@@H](O)[C@@H]2O
activity change, negative = cytotoxicity: -6.13% (inactive)

CCOC(=O)C1(Cc2ccc(O)cc2)NC(c2ccccc2F)C2C(=O)N(C)C(=O)C21 (configuration not stated)
activity change, negative = cytotoxicity: -15.5% (inactive)

N#Cc1c(NCCCO)nc(-c2ccco2)c2c1CCCC2
activity change, negative = cytotoxicity: -19.8% (inactive)

Cc1ccc(SCC(=O)c2sc(-c3ccccc3)nc2C)cc1
activity change, negative = cytotoxicity: -11.9% (inactive)

COc1ccc(Cl)cc1NC(=O)COC(=O)C1CC1
activity change, negative = cytotoxicity: -9.32% (inactive)

CCn1c(SCC(=O)NC2CC2)nnc1-c1ccccc1
activity change, negative = cytotoxicity: -6.27% (inactive)

Cc1cc(C)cc(CC(=O)N2CCC2(C)C(=O)NS(=O)(=O)c2ccc(Br)cc2)c1 (configuration not stated)
activity change, negative = cytotoxicity: -4.97% (inactive)

CN(C)C(=O)CSc1nnc([C@H](Cc2ccccc2)NC(=O)OC(C)(C)C)o1
activity change, negative = cytotoxicity: -9.45% (inactive)

Cc1cc(Cl)ccc1OCc1n[nH]c(=S)n1C1CCCCC1
activity change, negative = cytotoxicity: -11% (inactive)

CN(CCC(=O)Nc1ccc(Br)cc1)Cc1ccccc1
activity change, negative = cytotoxicity: -5.93% (inactive)

C[C@@H]1O[C@@H](O[C@H]2[C@H](O)[C@@H](O)[C@H](Oc3c(-c4ccc(O)cc4)oc4cc(O)cc(O)c4c3=O)O[C@@H]2CO)[C@H](O)[C@H](O)[C@H]1O
activity change, negative = cytotoxicity: -3.49% (inactive)

COc1ccccc1N1CCN(C(=O)C(=O)N/N=C/c2cccc(O)c2)CC1
activity change, negative = cytotoxicity: -8.29% (inactive)

Cn1nccc1C(=O)Nc1ccc(S(=O)(=O)N2CCCC2)cc1
activity change, negative = cytotoxicity: -14.9% (inactive)

CCCn1nnnc1NC(=O)c1cccs1
activity change, negative = cytotoxicity: -5.77% (inactive)

COCC(=O)N(C)C1(c2nnnn2CCOC(=O)Nc2ccc(Cl)cc2)CCCC1
activity change, negative = cytotoxicity: -5.83% (inactive)

CN(C1=NC(=O)C(CC(=O)Nc2ccc(Br)cc2)S1)c1ccc(O)cc1 (configuration not stated)
activity change, negative = cytotoxicity: -8.95% (inactive)

COc1ccc2c(CC(=O)OCC(=O)N(C)c3c(N)n(Cc4ccccc4)c(=O)[nH]c3=O)coc2c1
activity change, negative = cytotoxicity: -8.77% (inactive)

O=C(CCN1C(=O)C2C3C=CC(C4CC34)C2C1=O)Oc1ccccc1 (configuration not stated)
activity change, negative = cytotoxicity: -3.44% (inactive)

CCOc1ccc2nc(SCC(=O)c3ccc(Cl)s3)sc2c1
activity change, negative = cytotoxicity: -9.42% (inactive)

C[C@@H]1O[C@@H](OC[C@@H]2O[C@H](Oc3c(-c4ccc(O)cc4)oc4cc(O)cc(O)c4c3=O)[C@@H](O)[C@H](O)[C@H]2O)[C@H](O)[C@H](O)[C@H]1O
activity change, negative = cytotoxicity: 0.405% (inactive)

CC(C)(C)OC(=O)N[C@@H](Cc1c[nH]c2ccccc12)c1nnc(SCC(N)=O)o1
activity change, negative = cytotoxicity: -7.43% (inactive)

COc1ccc(OC)c2[nH]c(=O)c(CCNC(=O)C(=O)c3c(C)[nH]c4ccccc34)cc12
activity change, negative = cytotoxicity: -1.3% (inactive)

CCC(=O)N1CCc2cc(S(=O)(=O)CCC(=O)NCc3ccco3)ccc21
activity change, negative = cytotoxicity: -2.4% (inactive)

N#Cc1ccccc1CSc1nnc(Cc2ccccc2)o1
activity change, negative = cytotoxicity: -7.32% (inactive)

Cc1cc(C)c(C)c(S(=O)(=O)N2CCC(C(=O)N(C)Cc3nc4ccccc4c(=O)[nH]3)CC2)c1C
activity change, negative = cytotoxicity: -5.52% (inactive)

O=C(C[C@H]1C[C@H](C(=O)N2CCCCC2)[C@@]2(CCc3ccccc3)c3[nH]c4cc(-c5ccco5)ccc4c3CCN2C1=O)NCCC1=CCCCC1
activity change, negative = cytotoxicity: -13% (inactive)

C[C@@H]1O[C@@H](OC[C@H]2O[C@@H](Oc3c(-c4ccc(O)c(O)c4)oc4cc(O)cc(O)c4c3=O)[C@H](O)[C@@H](O)[C@@H]2O)[C@H](O)[C@H](O)[C@H]1O
activity change, negative = cytotoxicity: -2.56% (inactive)

C[C@@H](CN1C2=NC[C@H](Cc3ccc(O)cc3)N2C[C@H]1Cc1ccc(O)cc1)NC(=O)CCC1CCCCC1
activity change, negative = cytotoxicity: -8.59% (inactive)

CCOc1ccc(C(=O)NCC(=O)OCC(=O)N(C)CC(=O)Nc2ccccc2CC)cc1OCC
activity change, negative = cytotoxicity: -4.27% (inactive)

O=C(NN1CC(C(=O)OCc2ccccc2F)CC1=O)c1ccccc1 (configuration not stated)
activity change, negative = cytotoxicity: -2.89% (inactive)

CCOc1ccc2[nH]c(=O)c(CN(CCO)C(=O)CC)cc2c1
activity change, negative = cytotoxicity: -9.33% (inactive)

NC(=O)c1nsc(C(=O)N(CC(=O)NCc2ccc(F)cc2)Cc2ccco2)c1N
activity change, negative = cytotoxicity: -24.6% (inactive)

C[C@@H]1O[C@@H](O[C@@H]2C(=O)c3c(O)cc(O)cc3O[C@H]2c2ccc(O)c(O)c2)[C@H](O)[C@H](O)[C@H]1O
activity change, negative = cytotoxicity: -7.93% (inactive)

C[C@@H](C(=O)NCc1ccccc1)N1C(=O)C2CC=CCC2C1=O (some centres not stated)
activity change, negative = cytotoxicity: -8.35% (inactive)

Cc1cc(NC(=O)COC(=O)C2CC(=O)N(c3ccccc3)C2)no1 (configuration not stated)
activity change, negative = cytotoxicity: -2.55% (inactive)

CC(=O)N(C)C1(c2nnnn2CCOC(=O)Nc2ccc(Cl)cc2)CCCCC1
activity change, negative = cytotoxicity: -9.52% (inactive)

COCc1[nH][nH]c(=O)c1C=Nc1ccc(F)cc1F
activity change, negative = cytotoxicity: -11.4% (inactive)

COc1ccc(S(=O)(=O)NC(C)C(=O)Nc2ccccc2F)cc1 (configuration not stated)
activity change, negative = cytotoxicity: -4.66% (inactive)

C=CCn1c(C(CCCC)CC(O)COCC(C)C)n[nH]c1=S (configuration not stated)
activity change, negative = cytotoxicity: -17.2% (inactive)

CN(C)S(=O)(=O)c1ccc(C(=O)Nc2ccc3nc(N4CCOCC4)sc3c2)cc1
activity change, negative = cytotoxicity: -20.7% (inactive)

O=C(NC(=S)Nc1cccc(NC(=O)c2ccccc2)c1)c1cccc([N+](=O)[O-])c1
activity change, negative = cytotoxicity: -10.7% (inactive)

CCCCn1c(SCC(=O)Nc2ccc(C)c(S(=O)(=O)N3CCOCC3)c2)nnc1C(CC)N(C)C (configuration not stated)
activity change, negative = cytotoxicity: 1.22% (inactive)

COc1cc(C(C)=O)ccc1OCC(=O)NCCCn1nc(C)cc1C
activity change, negative = cytotoxicity: -1.82% (inactive)

CC(O)(c1cccnc1)c1nc(-c2cc(F)cc(F)c2)cs1 (configuration not stated)
activity change, negative = cytotoxicity: -6.67% (inactive)

Cc1noc(C)c1S(=O)(=O)Nc1ccc2c(c1)CC(=O)N([C@H](C)CO)C[C@H](C)[C@H](CN(C)S(C)(=O)=O)O2
activity change, negative = cytotoxicity: 1.83% (inactive)

COc1ccccc1NS(=O)(=O)c1cccc(C(=O)NCC2(N3CCCCC3)CCCCC2)c1
activity change, negative = cytotoxicity: -10.5% (inactive)

Cc1nnc(N/N=C/c2ccc(-c3ccccc3F)o2)n1N
activity change, negative = cytotoxicity: -8.41% (inactive)

Cc1ccc(-n2ncc3c(=O)[nH]c(SCC(=O)N4CCCc5ccccc54)nc32)cc1
activity change, negative = cytotoxicity: -1.87% (inactive)

OCCC1CN(Cc2cccn2-c2ccccn2)CCN1C1CCCCC1 (configuration not stated)
activity change, negative = cytotoxicity: -20.5% (inactive)

CC(=O)N1CCC(C(=O)NCCOc2cccc(C)c2)CC1
activity change, negative = cytotoxicity: -15.7% (inactive)

O=c1cc(CSc2nnnn2-c2ccc(O)cc2)nc2sccn12
activity change, negative = cytotoxicity: -22.1% (inactive)

C[C@@H]1CN([C@H](C)CO)C(=O)c2cc(NC(=O)Cc3cn(C)c4ccccc34)ccc2O[C@H]1CN(C)S(=O)(=O)c1ccc(F)cc1
activity change, negative = cytotoxicity: -11.7% (inactive) and -2.14% (inactive)

CC(=O)Nc1cccc(NC(=O)CCc2ccccc2)c1
activity change, negative = cytotoxicity: -12% (inactive)

CC(C)CCOc1ccc(C2(C)NC(=O)N(CN3CCOCC3)C2=O)cc1 (configuration not stated)
activity change, negative = cytotoxicity: -15.3% (inactive)

Cc1noc(C)c1S(=O)(=O)Nc1ccc2c(c1)CC(=O)N([C@H](C)CO)C[C@@H](C)[C@@H](CN(C)S(=O)(=O)c1ccc(F)cc1)O2
activity change, negative = cytotoxicity: -0.682% (inactive)

COc1cccc(/C=N/NC(=O)CNC(=O)c2ccc3c(c2)OCCO3)c1O
activity change, negative = cytotoxicity: -12.5% (inactive)

COc1ccccc1NS(=O)(=O)c1cccc(C(=O)NCC2(N(C)C)CCCCC2)c1
activity change, negative = cytotoxicity: -8.59% (inactive)

COc1ccc(C2C(C(C)=O)=C(O)C(=O)N2CCc2c[nH]c3ccccc23)cc1OC (configuration not stated)
activity change, negative = cytotoxicity: -3.29% (inactive)
